Converted amounts (≈) assume the structure as drawn.
What was measured:
[1] = test system: PKB Ser473 phosphorylation in Rat1-myr-HA-p110 delta cells; assay: Reverse protein array assay, PKB Ser473 phosphorylation in Rat1-myr-p110 delta cells; assay type: cell-based; details: read-out: p-PKB IC50
In short: (§1)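 Measured: PKB Ser473 phosphorylation by reverse protein array in Rat1 cells expressing myr-HA-p110 alpha, beta or delta, after 30 min compound treatment at 37 °C with 0.2% DMSO vehicle.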

Solubility at pH 6.8 = assay type: physicochemical; details: pH 6.8, aqueous buffer, thermodynamic from solid; read-out: solubility
In short: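 Solubility was measured at pH 6.8 following the cited Zhou et al. (2007) procedure.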

[2] = test system: PKB Ser473 phosphorylation in Rat1-myr-HA-p110 alpha cells; assay: Reverse protein array assay, PKB Ser473 phosphorylation in Rat1-myr-p110 alpha cells; assay type: cell-based; details: 0.5 h, pAkt Ser473, 30 minutes compound incubation, read-out: p-PKB IC50
In short: as §1

PI3K gamma = target: T1, PI3K gamma (Homo sapiens, UniProt P48736); assay: PI3K gamma kinase assay (Kinase-Glo luminescence); assay type: biochemical
T1 construct: His tag (C); made in house; host or cells: baculovirus (pVL1393); Tn5 or TiniPro insect cells; construct from Roger Williams lab, MRC LMB
In short: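 Luminescent ATP-depletion (Kinase-Glo) assay with 150 nM PI3Kγ, 1 μM ATP and 10 μg/mL phosphatidylinositol in 10 mM Tris-HCl pH 7.5, 3 mM MgCl2, 50 mM NaCl, 0.05% CHAPS, 1 mM DTT; 120 min at room temperature. Eight-point dilutions; IC50 by four-parameter logistic fit.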

[3] = Cellular CaCo2 permeability assay from apical to basal (A-B); assay type: in vitro ADME; details: human, Caco-2, read-out: Pe A-B (permeability)
From the text: The permeability in 10^−6 cm/s of compounds of formula (I) have been confirmed for selected example using a cellular CaCo2 permeability assay from apical to basal (A-B): […]

T1 sequence (P48736 144-1102 limits assumed): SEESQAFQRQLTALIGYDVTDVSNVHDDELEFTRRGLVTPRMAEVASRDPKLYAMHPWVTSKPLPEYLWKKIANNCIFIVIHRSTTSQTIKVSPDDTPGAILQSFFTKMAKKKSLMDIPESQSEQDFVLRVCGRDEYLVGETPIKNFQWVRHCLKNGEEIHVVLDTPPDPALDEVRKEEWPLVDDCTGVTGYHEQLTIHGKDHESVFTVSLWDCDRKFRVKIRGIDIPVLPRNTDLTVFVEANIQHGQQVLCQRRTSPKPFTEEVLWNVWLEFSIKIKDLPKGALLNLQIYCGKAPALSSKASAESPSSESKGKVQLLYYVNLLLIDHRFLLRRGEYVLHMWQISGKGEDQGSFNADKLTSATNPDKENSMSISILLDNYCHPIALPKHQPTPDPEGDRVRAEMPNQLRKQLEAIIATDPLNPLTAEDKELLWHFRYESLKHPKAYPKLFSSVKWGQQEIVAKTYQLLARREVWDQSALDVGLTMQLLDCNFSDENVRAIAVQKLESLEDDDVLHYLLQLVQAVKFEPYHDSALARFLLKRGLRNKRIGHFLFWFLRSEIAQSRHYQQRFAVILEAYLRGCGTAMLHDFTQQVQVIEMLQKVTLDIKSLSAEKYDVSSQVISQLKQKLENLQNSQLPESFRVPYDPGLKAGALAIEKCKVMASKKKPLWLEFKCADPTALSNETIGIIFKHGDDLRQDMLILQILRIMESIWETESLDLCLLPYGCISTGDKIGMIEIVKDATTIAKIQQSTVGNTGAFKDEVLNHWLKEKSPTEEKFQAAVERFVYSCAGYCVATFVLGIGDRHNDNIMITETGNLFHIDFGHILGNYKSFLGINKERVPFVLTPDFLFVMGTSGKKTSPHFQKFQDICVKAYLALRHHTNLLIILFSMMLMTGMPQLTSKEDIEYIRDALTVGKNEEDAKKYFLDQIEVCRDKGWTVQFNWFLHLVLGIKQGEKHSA

## COc1ccc(-c2ccc3ncc4c(c3c2)n(-c2c(C)nn(C)c2C)c(=O)n4C)cc1OC [Example 1.9, 8-(3,4-Dimethoxy-phenyl)-3-methyl-1-(1,3,5-trimethyl-1H-pyrazol-4-yl)-1,3-dihydro-imidazo[4,5-c]quinolin-2-one]
[1]
  IC50: 140 nM
Solubility at pH 6.8
  solubility: 315 µg/mL (≈ 710 µM)
[2]
  IC50: 26 nM
PI3K gamma
  IC50: 100 nM

## COc1ccc(-c2ccc3ncc4c(c3c2)n(-c2cnn(C)c2C)c(=O)n4C)cn1 [Example 2.9, 1-(1,5-Dimethyl-1H-pyrazol-4-yl)-8-(6-methoxy-pyridin-3-yl)-3-methyl-1,3-dihydro-imidazo[4,5-c]quinolin-2-one]
[1]
  IC50: 165 nM
[2]
  IC50: 44 nM
PI3K gamma
  IC50: 206 nM

## CCOc1ccc(-c2ccc3ncc4c(c3c2)n(-c2cn(C)nc2Cl)c(=O)n4C)cn1 [Example 3.8, 1-(3-Chloro-1-methyl-1H-pyrazol-4-yl)-8-(6-ethoxy-pyridin-3-yl)-3-methyl-1,3-dihydro-imidazo[4,5-c]quinolin-2-one]
[1]
  IC50: 37 nM
[2]
  IC50: 15 nM
PI3K gamma
  IC50: 529 nM

## Cc1c(-n2c(=O)n(C)c3cnc4ccc(-c5ccc(N(C)C)nc5)cc4c32)cnn1C [Example 4.4, 8-(6-Dimethylamino-pyridin-3-yl)-1-(1,5-dimethyl-1H-pyrazol-4-yl)-3-methyl-1,3-dihydro-imidazo[4,5-c]quinolin-2-one]
[1]
  IC50: 155 nM
[2]
  IC50: 53 nM
PI3K gamma
  IC50: 341 nM

## Cc1nn(C(C)C)cc1-n1c(=O)n(C)c2cnc3ccc(-c4cnc(N(C)C)nc4)cc3c21 [Example 6.1, 8-(2-Dimethylamino-pyrimidin-5-yl)-1-(1-isopropyl-3-methyl-1H-pyrazol-4-yl)-3-methyl-1,3-dihydro-imidazo[4,5-c]quinolin-2-one]
[1]
  IC50: 90 nM
[2]
  IC50: 61 nM
PI3K gamma
  IC50: 182 nM

## Cc1nn(C)cc1-n1c(=O)n(C)c2cnc3ccc(-c4cccnc4)cc3c21 [Example 10.2, 1-(1,3-Dimethyl-1H-pyrazol-4-yl)-3-methyl-8-pyridin-3-yl-1,3-dihydro-imidazo[4,5-c]quinolin-2-one]
[1]
  IC50: 197 nM
Solubility at pH 6.8
  solubility: 42 µg/mL (≈ 113 µM)
[2]
  IC50: 50 nM
PI3K gamma
  IC50: 129 nM

## CCn1cc(-n2c(=O)n(C)c3cnc4ccc(-c5ccc(CO)nc5)cc4c32)c(C)n1 [Example 16.1, 1-(1-ethyl-3-methyl-1H-pyrazol-4-yl)-8-(6-hydroxymethyl-pyridin-3-yl)-3-methyl-1,3-dihydro-imidazo[4,5-c]quinolin-2-one]
[1]
  IC50: 130 nM
Solubility at pH 6.8
  solubility: 75 µg/mL (≈ 181 µM)
[2]
  IC50: 74 nM
PI3K gamma
  IC50: 415 nM

## Cc1nn(C)cc1-n1c(=O)n(C)c2cnc3ccc(-c4cncc(S(C)(=O)=O)c4)cc3c21 [Example 22, 1-(1,3-Dimethyl-1H-pyrazol-4-yl)-8-(5-methanesulfonyl-pyridin-3-yl)-3-methyl-1,3-dihydro-imidazo[4,5-c]quinolin-2-one]
[1]
  IC50: 297 nM
[2]
  IC50: 168 nM
PI3K gamma
  IC50: 73 nM

## Cc1nn(C)cc1-n1c(=O)n(C)c2cnc3ccc(-c4cncnc4)cc3c21 [Example 26, 1-(1,3-Dimethyl-1H-pyrazol-4-yl)-3-methyl-8-pyrimidin-5-yl-1,3-dihydro-imidazo[4,5-c]quinolin-2-one]
[1]
  IC50: 450 nM
Solubility at pH 6.8
  solubility: 242 µg/mL (≈ 652 µM)
[2]
  IC50: 159 nM
PI3K gamma
  IC50: 777 nM

## Cc1nn(C)cc1-n1c(=O)n(C)c2cnc3ccc(-c4cc(O)cc(C(F)(F)F)c4)cc3c21 [Example 34, 1-(1,3-Dimethyl-1H-pyrazol-4-yl)-8-(3-hydroxy-5-trifluoromethyl-phenyl)-3-methyl-1,3-dihydro-imidazo[4,5-c]quinolin-2-one]
[1]
  IC50: 202 nM
[2]
  IC50: 138 nM
PI3K gamma
  IC50: 82 nM

## Cc1nn(C)cc1-n1c(=O)n(C)c2cnc3ccc(-c4cnc5[nH]ccc5c4)cc3c21 [Example 36, 1-(1,3-dimethyl-1H-pyrazol-4-yl)-3-methyl-8-(1H-pyrrolo[2,3-b]pyridin-5-yl)-1,3-dihydro-imidazo[4,5-c]quinolin-2-one]
[1]
  IC50: 8 nM
[2]
  IC50: 5 nM
PI3K gamma
  IC50: 118 nM

## Cc1nn(C)cc1-n1c(=O)n(C)c2cnc3ccc(-c4ccc(OCC5CC5)nc4)cc3c21 [Example 42, 8-(6-Cyclopropylmethoxy-pyridin-3-yl)-1-(1,3-dimethyl-1H-pyrazol-4-yl)-3-methyl-1,3-dihydro-imidazo[4,5-c]quinolin-2-one]
[1]
  IC50: 158 nM
[2]
  IC50: 36 nM
PI3K gamma
  IC50: 590 nM

## CNC(=O)c1ccc(-c2ccc3ncc4c(c3c2)n(-c2cn(C)nc2Cl)c(=O)n4C)cc1 [Example 43.2, 4-[1-(3-Chloro-1-methyl-1H-pyrazol-4-yl)-3-methyl-2-oxo-2,3-dihydro-1H-imidazol[4,5-c]quinolin-8-yl]-N-methyl-benzamide]
[1]
  IC50: 12 nM
[2]
  IC50: 6 nM
PI3K gamma
  IC50: 114 nM

## Cc1nn(C)cc1-n1c(=O)n(C)c2cnc3ccc(-c4ccc5c(c4)CCN5C)cc3c21 [Example 50, 1-(1,3-Dimethyl-1H-pyrazol-4-yl)-3-methyl-8-(1-methyl-2,3-dihydro-1H-indol-5-yl)-1,3-dihydro-imidazo[4,5-c]quinolin-2-one]
[1]
  IC50: 570 nM
[2]
  IC50: 72 nM
PI3K gamma
  IC50: 334 nM

## CCCOc1ccc(-c2ccc3ncc4c(c3c2)n(-c2cn(C)nc2C)c(=O)n4C)cn1 [Example 55, 1-(1,3-Dimethyl-1H-pyrazol-4-yl)-3-methyl-8-(6-propoxy-pyridin-3-yl)-1,3-dihydro-imidazo[4,5-c]quinolin-2-one]
[1]
  IC50: 54 nM
Solubility at pH 6.8
  solubility: 3 µg/mL (≈ 7 µM)
[2]
  IC50: 20 nM
PI3K gamma
  IC50: 343 nM

## CCOc1cccc(-c2ccc3ncc4c(c3c2)n(-c2cn(C)nc2C)c(=O)n4C)c1 [Example 57, 1-(1,3-Dimethyl-1H-pyrazol-4-yl)-8-(3-ethoxy-phenyl)-3-methyl-1,3-dihydro-imidazo[4,5-c]quinolin-2-one]
[1]
  IC50: 288 nM
[2]
  IC50: 51 nM
PI3K gamma
  IC50: 197 nM

## CCNc1cc(-c2ccc3ncc4c(c3c2)n(-c2cn(C)nc2C)c(=O)n4C)cnc1C [Example 87.1, 1-(1,3-Dimethyl-1H-pyrazol-4-yl)-8-(5-ethylamino-6-methyl-pyridin-3-yl)-3-methyl-1,3-dihydro-imidazo[4,5-c]quinolin-2-one]
[1]
  IC50: < 5 nM
[3]
  Papp A→B: 17 ×10⁻⁶ cm/s
Solubility at pH 6.8
  solubility: 410 µg/mL (≈ 959 µM)
[2]
  IC50: < 5 nM

## Cc1nn(C(C)C)cc1-n1c(=O)n(C)c2cnc3ccc(-c4ccc(C(N)=O)nc4)cc3c21 [Example 112, 5-[1-(1-Isopropyl-3-methyl-1H-pyrazol-4-yl)-3-methyl-2-oxo-2,3-dihydro-1H-imidazo[4,5-c]quinolin-8-yl]-pyridine-2-carboxylic acid amide]
[1]
  IC50: 69 nM
[2]
  IC50: 24 nM
PI3K gamma
  IC50: 471 nM

## Cc1nn(C)cc1-n1c(=O)n(C)c2cnc3ccc(-c4cccc(N(C)S(C)(=O)=O)c4)cc3c21 [Example 117, N-{3-[1-(1,3-Dimethyl-1H-pyrazol-4-yl)-3-methyl-2-oxo-2,3-dihydro-1H-imidazo[4,5-c]quinolin-8-yl]-phenyl}-N-methyl-methanesulfonamide]
[1]
  IC50: 425 nM
Solubility at pH 6.8
  solubility: 3 µg/mL (≈ 6.3 µM)
[2]
  IC50: 282 nM
PI3K gamma
  IC50: 225 nM

## CNc1ccc(-c2ccc3ncc4c(c3c2)n(-c2cn(C(C)C)nc2C)c(=O)n4C)cn1 [Example 118.1, 1-(1-isopropyl-3-methyl-1H-pyrazol-4-yl)-3-methyl-8-(6-methylamino-pyridin-3-yl)-1,3-dihydro-imidazo[4,5-c]quinolin-2-one]
[1]
  IC50: 12 nM
Solubility at pH 6.8
  solubility: 3 µg/mL (≈ 7.02 µM)
[2]
  IC50: 8 nM
PI3K gamma
  IC50: 164 nM

## CNc1ccc(-c2ccc3ncc4c(c3c2)n(-c2cn(CC(=O)N(C)C)nc2C)c(=O)n4C)cn1 [Example 118.3, N,N-Dimethyl-2-{3-methyl-4-[3-methyl-8-(6-methylamino-pyridin-3-yl)-2-oxo-2,3-dihydro-imidazo[4,5-c]quinolin-1-yl]-pyrazol-1-yl}-acetamide]
[1]
  IC50: 396 nM
Solubility at pH 6.8
  solubility: 21 µg/mL (≈ 44.6 µM)
[2]
  IC50: 107 nM
PI3K gamma
  IC50: 138 nM

## CCOC(C)(C)c1cncc(-c2ccc3ncc4c(c3c2)n(-c2cn(C)nc2C)c(=O)n4C)c1 [Example 240, 1-(1,3-Dimethyl-1H-pyrazol-4-yl)-8-[5-(1-ethoxy-1-methyl-ethyl)-pyridin-3-yl]-3-methyl-1,3-dihydro-imidazo[4,5-c]quinolin-2-one]
[1]
  IC50: 131 nM
Solubility at pH 6.8
  solubility: 4 µg/mL (≈ 8.76 µM)
[2]
  IC50: 72 nM

## C=CCn1c(=O)n(-c2cn(C)nc2C)c2c3cc(-c4cncc(N)c4)ccc3ncc21 [Example 246, 3-Allyl-8-(5-amino-pyridin-3-yl)-1-(1,3-dimethyl-1H-pyrazol-4-yl)-1,3-dihydro-imidazo[4,5-c]quinolin-2-one]
[1]
  IC50: 837 nM
Solubility at pH 6.8
  solubility: 75 µg/mL (≈ 182 µM)
[2]
  IC50: 227 nM

## CCN(CC)C(=O)Cn1cc(-n2c(=O)n(C)c3cnc4ccc(-c5cnc(N6CCCC6)nc5)cc4c32)c(C)n1 [Example 247.1, N,N-Diethyl-2-{3-methyl-4-[3-methyl-2-oxo-8-(2-pyrrolidin-1-yl-pyrimidin-5-yl)-2,3-dihydro-imidazo[4,5-c]quinolin-1-yl]-pyrazol-1-yl}-acetamide]
[1]
  IC50: 157 nM
Solubility at pH 6.8
  solubility: 69 µg/mL (≈ 128 µM)
[2]
  IC50: 28 nM

Source: US20140005163A1 (NOVARTIS AG, priority 2010, published 2014)
